Legend:
[1] = system: TNBS-induced colitis mouse; test: TNBS (2,4,6-trinitrobenzenesulfonic acid)-induced mouse colitis model; format: in vivo; conditions: antibody 0.1 mg/head i.p. on division day and day 2, SSZ 200 mg/kg orally once daily
Experimental: 0.5 g of egg albumin (OVA: manufactured by Sigma) and 0.5 g of K2CO3 (manufactured by Nacalai Tesque) were dissolved in 25 ml of distilled water for injection (OVA solution). 0.5 g of 2,4,6-trinitrobenzenesulfonic acid (TNBS: manufactured by Nacalai Tesque) was dissolved in 25 ml of 0.1 M K2CO3 (TNBS solution). The OVA solution and the TNBS solution were mixed, and the mixture was stirred overnight at room temperature. The stirred solution was dialyzed against 0.01 M NaHCO3 (manufactured by Nacalai Tesque) through a dialyzer (Spectra/Por Membrane MWCO:10,000, manufactured by Spectrum Medical Industries Inc.). The dialyzate was subjected to protein quantitative determination by BCA Protein Assay Reagent (manufactured by Pierce).
A 1:1 emulsion of complete Freunt adjuvant (CFA: manufactured by Difco Laboratories) and 2 mg/ml of TNP-OVA was subcutaneously injected (sensitized) into the back of a 5-week-old SJL/J mouse (SJL/JorlIcoCrj, male, supplied by Nippon Charles River) at a rate of 0.1 ml/head. […]
The symptom of colitis from the division day to day 5 after the division was observed. The symptom of colitis was scored according to the conditions of stool [normal stool (score:0), loose stool (score:1) and diarrhea (score:2)]. […]
On the final day of the experiment, after euthanasia with a high concentration of CO2, a large bowel was extracted, and the length thereof was measured. […]

normal mice = conditions: cells incubated 48 hours with 0.2 μg/ml SEB and 10 μM of compound A (condition C); cited from earlier work
intracellular IFN-γ = format: cell-based, mouse; conditions: SEB 1 μg/ml
[2] = system: IBD-pathogenic cells (mesenteric lymph node cells and spleen cells of TNBS colitis mouse stimulated with Staphylococcal enterotoxin B); format: cell-based
[3] = rate of compound-reacted cells for 1% of the cell population, 10 μM compound A

O=C(O)c1cc(/N=N/c2ccc(S(=O)(=O)Nc3ccccn3)cc2)ccc1O [SSZ, sulfasalazine]
Intestinal Length mm(S.D) ([1]; large bowel length, day 5 after division, control 87.8 (10.3), Dunnet test * 0.01<p<0.05, ** p<0.01): 103.1 (8.3)** mm
Symptom of colitis (S.D) ([1]; stool score 0-2, SJL/J mice, control 1.75 (0.46), Steel test * 0.01<p<0.05): 0.71 (0.71)*

Clc1c(C2(c3ccc(N4CCOCC4)cc3)CCC2)nn2c1NCCC2 [compound A, 3-chloro-2-[1-(4-morpholin-4-ylphenyl)cyclobutyl]-4,5,6,7-tetrahydropyrazolo[1,5-a]pyrimidine]
induction of the symptom of colitis by cells transferred into normal mice (normal mice): do not induce the symptom of colitis
Compound-reacted cells/presence rate, cell surface marker CD3 (intracellular IFN-γ; [3]): 1.1
Compound-reacted cells/presence rate, cell surface marker CD4 (intracellular IFN-γ; [3]): 0.8
Compound-reacted cells/presence rate, cell surface marker CD40 (intracellular IFN-γ; [3]): 2.7
Compound-reacted cells/presence rate, cell surface marker CD40L in CD3 (intracellular IFN-γ; [3]): 0.8
Compound-reacted cells/presence rate, cell surface marker CD81 in CD3 (intracellular IFN-γ; [3]): 11.1
Compound-reacted cells/presence rate, cell surface marker CD49d (intracellular IFN-γ; [3]): 2.4
Compound-reacted cells/presence rate, cell surface marker TCRV β3 (intracellular IFN-γ; [3]): 0
Compound-reacted cells/presence rate, cell surface marker TCRV γδ (intracellular IFN-γ; [3]): 4.4
Compound-reacted cells (%), cell surface marker CD40L in CD3 (intracellular IFN-γ; share of intracellular IFN-γ-positive cells reduced by compound A (total reduction = 100), 10 μM, presence rate 3.94%): 3.3%
Compound-reacted cells (%), cell surface marker CD81 in CD3 (intracellular IFN-γ; share of intracellular IFN-γ-positive cells reduced by compound A (total reduction = 100), 10 μM, presence rate 4.67%): 51.7%
Compound-reacted cells (%), cell surface marker TCRV γδ (intracellular IFN-γ; share of intracellular IFN-γ-positive cells reduced by compound A (total reduction = 100), 10 μM, presence rate 5.39%): 23.8%
Compound-reacted cells (%), cell surface marker CD40 (intracellular IFN-γ; share of intracellular IFN-γ-positive cells reduced by compound A (total reduction = 100), 10 μM, presence rate 9.14%): 24.3%
Compound-reacted cells (%), cell surface marker CD49d (intracellular IFN-γ; share of intracellular IFN-γ-positive cells reduced by compound A (total reduction = 100), 10 μM, presence rate 16.4%): 39.6%
Compound-reacted cells (%), cell surface marker CD4 (intracellular IFN-γ; share of intracellular IFN-γ-positive cells reduced by compound A (total reduction = 100), 10 μM, presence rate 45.7%): 55.6%
Compound-reacted cells (%), cell surface marker CD3 (intracellular IFN-γ; share of intracellular IFN-γ-positive cells reduced by compound A (total reduction = 100), 10 μM, presence rate 92.1%): 103.4%
Compound-reacted cells (%), cell surface marker TCRV β3 (intracellular IFN-γ; share of intracellular IFN-γ-positive cells reduced by compound A (total reduction = 100), 10 μM, presence rate 100%): 0%
Gene chip expression signal, CD81 (101495_at) [2]: 195.1
Gene chip expression signal, CDw40 (92962_at) [2]: 63.9
Gene chip expression signal, DAP12 (100397_at) [2]: 1144.2
Gene chip expression signal, IL-9 (96574_at) [2]: 96.4
Gene chip expression signal, IL-10Rβ (99491_at) [2]: 1000.9
Gene chip expression signal, IL-17 (99349_at) [2]: 172.4
Gene chip expression signal, Integrin β1 (100124_r_at) [2]: 149.4
Gene chip expression signal, Lymphotoxin α (102630_s_at) [2]: 220.6
Gene chip expression signal, Paired-Ig-like receptor Al (100328_s_at) [2]: 791.2
Gene chip expression signal, TCRV γ4 (102745_at) [2]: 33.1
IFN-γ gene expression (DNA chip analysis) [2]: decreased

Source: patent US20060275289A1, “Preventive or remedy for inflammatory bowel diseases containing anti-cd81 antibody as the active ingredient” (priority 2003, published 2006)
